Legend:
MAT2A homodimer = molecular target: T1, MAT2A homodimer (Homo sapiens, UniProt P31153); assay: MAT2A biochemical assay (liberated phosphate, PiColorLock Gold); details: Table 5a; MAT2A biochemical assay; read-out: Enzyme Inhibition
T1 construct: inferred from the Ni sepharose purification and imidazole elution; made in house; host or cells: SF9 insect cells, recombinant baculovirus (Bac to Bac, pFASTBAC1)
Method in brief: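 Baculovirus/Sf9-expressed, Ni-purified MAT2A homodimer preincubated with compound 60 min at 25 °C, then reacted 60 min at 25 °C with substrate mix of 500 μM ATP and 400 μM L-methionine, pH 7.0 (mix, not final levels). Phosphate released with SAM measured by PiColorLock Gold against phosphate standard curve.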

[1] = system: SAM in HCT116 MTAP-deleted cells; assay: Cellular assay of target engagement (SAM), LC-MS/MS; type: cell-based, human; details: Homo sapiens, HCT-116, Table 5a, 72 h, read-out: Cell 72 h SAM Inhibition (MTAP −/−)
Method in brief: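 HCT116 cells with MTAP deleted were treated with compound for 72 h at 37°C/5% CO2. After quenching lysis in cold 80% methanol with 1 M acetic acid, SAM was quantified by LC-MS/MS against a d3-SAM internal standard.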

HCT116 MTAP-/- = assay: Inhibition of cellular proliferation (Cell Titer Glo), HCT116 MTAP-/-; type: cell-based, human; details: Homo sapiens, HCT-116, 96 h, Table 5a, 4 days, read-out: 4 Day Relative Growth Inhibition (MTAP −/−)
Method in brief: (§1)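 Isogenic HCT116 MTAP+/+ and MTAP−/− cells were plated, treated with MAT2A inhibitor after 24 h, and incubated 4 days at 37 °C. Proliferation was read by CellTiter-Glo ATP luminescence, blank-subtracted and normalized to 0.2% DMSO control.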

HCT116 MTAP+/+ = assay: Inhibition of cellular proliferation (Cell Titer Glo), HCT116 MTAP+/+; type: cell-based; details: Homo sapiens, HCT-116, 96 h, Table 5a, 4 days, read-out: 4 Day Relative Growth Inhibition (MTAP +/+)
Method in brief: as §1

T1 sequence (P31153 whole entry): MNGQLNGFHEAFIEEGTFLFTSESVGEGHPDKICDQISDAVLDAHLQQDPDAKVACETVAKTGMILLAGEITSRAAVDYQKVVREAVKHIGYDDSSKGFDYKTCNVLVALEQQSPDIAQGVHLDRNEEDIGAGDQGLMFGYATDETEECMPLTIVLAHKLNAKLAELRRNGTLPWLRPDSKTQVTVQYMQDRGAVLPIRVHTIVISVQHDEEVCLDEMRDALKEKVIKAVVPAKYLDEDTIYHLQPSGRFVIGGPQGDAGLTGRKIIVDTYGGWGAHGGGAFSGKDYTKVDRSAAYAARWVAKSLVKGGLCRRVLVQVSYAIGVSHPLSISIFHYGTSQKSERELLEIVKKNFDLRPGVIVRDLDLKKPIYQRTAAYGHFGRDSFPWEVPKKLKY

| SMILES | IC50 (MAT2A homodimer) [nM] | IC50 [1] [nM] | IC50 (HCT116 MTAP-/-) [nM] | IC50 (HCT116 MTAP+/+) [nM] |
| --- | --- | --- | --- | --- |
| Cn1cc2cc(N3Cc4ccc(OC5CC5)nc4N(c4ccc(OC(F)F)cc4)C3=O)ccc2n1 [Example 144, 7-cyclopropoxy-1-(4-(difluoromethoxy)phenyl)-3-(2-methyl-2H-indazol-5-yl)-3,4-dihydropyrido[2,3-d]pyrimidin-2(1H)-one] | < 100 | < 100 | 100 to 1000 | > 1000 |
| Cn1cc2cc(N3Cc4ccc(OCC(F)F)nc4N(c4ccc5scnc5c4)C3=O)ccc2n1 [Example 170, 1-(benzo[d]thiazol-5-yl)-7-(2,2-difluoroethoxy)-3-(2-methyl-2H-indazol-5-yl)-3,4-dihydropyrido[2,3-d]pyrimidin-2(1H)-one] | < 100 | < 100 | < 100 | 100 to 1000 |
| COc1ccc(N2C(=O)N(c3ccc4[nH]cnc4c3)Cc3cnc(NCC(F)(F)F)nc32)cc1 [Example 234, 3-(1H-benzo[d]imidazol-5-yl)-1-(4-methoxyphenyl)-7-((2,2,2-trifluoroethyl)amino)-3,4-dihydropyrimido[4,5-d]pyrimidin-2(1H)-one] | < 100 | 100 to 1000 | 100 to 1000 | > 1000 |
| [2H]C([2H])([2H])Oc1ccc(N2C(=O)N(c3ccc4nn(CC(F)F)cc4c3)Cc3ccc(OCC(F)F)nc32)cc1 [Example 119, 7-(2,2-difluoroethoxy)-3-(2-(2,2-difluoroethyl)-2H-indazol-5-yl)-1-(4-methoxy-d3-phenyl)-3,4-dihydropyrido[2,3-d]pyrimidin-2(1H)-one] | < 100 | < 100 | 100 to 1000 | > 1000 |
| [2H]C([2H])([2H])Oc1ccc(N2C(=O)N(c3ccc4nn(C)cc4c3)Cc3ccc(OCC(F)F)nc32)cc1 [Example 136, 7-(2,2-difluoroethoxy)-1-(4-(methoxy-d3)phenyl)-3-(2-methyl-2H-indazol-5-yl)-3,4-dihydropyrido[2,3-d]pyrimidin-2(1H)-one] | < 100 | < 100 | < 100 | 100 to 1000 |
| CCOc1ccc2c(c1)N(c1ccc(OC(F)F)cc1)C(=O)N(c1ccc3nn(C)cc3c1)C2 [Example 287, 1-[4-(difluoromethoxy)phenyl]-7-ethoxy-3-(2-methyl-2H-indazol-5-yl)-1,2,3,4-tetrahydroquinazolin-2-one] | < 100 | 100 to 1000 | 100 to 1000 | 100 to 1000 |
| CCOc1ccc2c(n1)N(c1ccc(OC)cc1)C(=O)N(c1ccc3nn(C)cc3c1)C2 [Example 143, 7-ethoxy-1-(4-methoxyphenyl)-3-(2-methyl-2H-indazol-5-yl)-3,4-dihydropyrido[2,3-d]pyrimidin-2(1H)-one] | < 100 | < 100 | 100 to 1000 | > 1000 |
| COc1ccc(N2Cc3ccc(NCC(F)(F)F)nc3N(c3ccc(-c4ncn[nH]4)cc3)C2=O)cc1 [Example 113, 1-(4-(1H-1,2,4-triazol-5-yl)phenyl)-3-(4-methoxyphenyl)-7-((2,2,2-trifluoroethyl)amino)-3,4-dihydropyrido[2,3-d]pyrimidin-2(1H)-one] | < 100 | < 100 | < 100 | > 1000 |
| COc1ccc(N2Cc3cnc(NCC(F)(F)F)nc3N(c3ccc(-c4c[nH]cn4)cc3)C2=O)cc1 [Example 196, 1-(4-(1H-imidazol-4-yl)phenyl)-3-(4-methoxyphenyl)-7-((2,2,2-trifluoroethyl)amino)-3,4-dihydropyrimido[4,5-d]pyrimidin-2(1H)-one] | < 100 | 100 to 1000 | 100 to 1000 | > 1000 |
| COc1ccc(N2Cc3cnc(NCC(F)(F)F)nc3N(c3ccc(Cl)cc3)C2=O)cc1 [Example 252, 1-(4-chlorophenyl)-3-(4-methoxyphenyl)-7-((2,2,2-trifluoroethyl)amino)-3,4-dihydropyrimido[4,5-d]pyrimidin-2(1H)-one] | 100 to 1000 | 100 to 1000 | > 1000 | > 1000 |
| [2H]C([2H])([2H])Oc1ccc(N2C(=O)N(c3ccc4nn(C([2H])([2H])[2H])cc4c3)Cc3cnc(NCC(F)(F)F)nc32)cc1 [Example 423, 1-(4-(methoxy-d3)phenyl)-3-(2-(methyl-d3)-2H-indazol-5-yl)-7-((2,2,2-trifluoroethyl)amino)-3,4-dihydropyrimido[4,5-d]pyrimidin2(1H)-one] | < 100 | < 100 | < 100 | > 1000 |

Reference: patent US20220098203A1 (priority 2018, published 2022)
